Drawing on US20240352000A1, “NOVEL PYRIMIDINE-2,4-DIAMINE DERIVATIVES, PREPARATION METHOD THEREFOR, AND PHARMACEUTICAL COMPOSITION CONTAINING SAME AS ACTIVE INGREDIENT FOR PREVENTION OR TREATMENT OF CANCER” (KOREA RESEARCH INSTITUTE OF CHEMICAL TECHNOLOGY, priority 2021, published 2024), this text covers IC50 for 2 molecules.

Bounds are passed on as bounds.

Test [1] addresses EGFR del19/T790M (Homo sapiens (Human), UniProt P00533, DEL746-750/T790M). In words: HTRF enzyme assay, EGFR del19/T790M mutant enzyme. It counts as biochemical. The following applies: recombinant enzyme, 37° C. 2 hours. How it is done: An experiment to measure the activity of the compounds of the present invention against EGFR mutant enzymes was performed as follows using the HTRF system sold by Cisbio. For the EGFR del19/T790M mutant enzyme, a recombinant protein provided by Carna Biosciences was purchased and used, and for the EGFR del19/T790M/C797S mutant enzyme, a protein provided by SignalChem was purchased and used as an enzyme source.
(§1) The composition of the assay buffer used for measuring the activity was 50 mM Tris-HCl pH 7.5, 100 mM NaCl, 7.5 mM MgCl2, 3 mM KCl, 0.01% Tween 20, 0.1% BSA, and 1 mM DTT. Here, an enzyme reaction was performed using ATP at a concentration of […] and a peptide substrate labeled with biotin at a concentration of […]. Analysis of the inhibitory effect of the compounds against the EGFR activity was conducted according to the following analysis reaction recipe. • Component 1: 4 μL of an EGFR mutant enzyme • Component 2: 2 μL of a compound solution • Component 3: 4 μL of ATP and a peptide labeled with biotin
(§2) The enzyme reaction was started by first mixing Component 1 and Component 2 and then adding Component 3. After reaction at 37° C. for 2 hours, […] of measurement solution consisting of streptavidin-XL665 and europium-labeled anti-phosphotyrosine antibody provided by Cisbio was added to the enzyme reaction solution and reacted at room temperature for 1 hour. Finally, the ratio of fluorescence values at 615 nm and 665 nm was obtained using the Envision equipment from Perkin-Elmer to quantitatively measure the enzyme activity and confirmed the inhibitory ability of the compounds. The measurement values measured at seven compound concentrations were analyzed using the Prism program (version 5.01, Graphpad Software, Inc.), and the IC50 value, which is an indicator of the inhibitory ability of the compound, was calculated.
In general terms: Time-resolved FRET reads energy transfer from a long-lived donor to a nearby acceptor.

Test [2] has as its system Ba/F3 EGFR del19/T790M. Description: CellTiter-Glo cell viability, Ba/F3 EGFR del19/T790M. The test is classed as cell-based. The following applies: 72 hours. The protocol: (§3) An experiment to measure the activity of the compounds of the present invention against the mutant Ba/F3 EGFR cell line was performed as follows using the CellTiter-Glo system sold by Promega. The CellTiter-Glo assay is a method to confirm the cell viability by measuring ATP present in cells in cell culture. For the Ba/F3 EGFR del19, Ba/F3 EGFR del19/T790M, Ba/F3 del19/T790M/C797S mutant cell line, a cell line provided by Crown Bioscience was purchased and used. The Ba/F3 EGFR del19, Ba/F3 EGFR del19/T790M, Ba/F3 del19/T790M/C797S mutant cell line was cultured in RPMI containing 10% FBS and 1% penicillin-streptomycin with 1 μg of puromycin in an incubator at 37° C. and 5% CO2.
(§4) Analysis of the inhibitory ability effect of the compounds against EGFR was conducted according to the following analysis reaction recipe.
(§5) 2500 cells/90 μL were passaged and cultured in a 96-well cell culture plate, and after 24 hours, treated with the compound represented by Formula 1 at a concentration of 0, 0.01, 0.03, 0.1, 0.3, 1, 3, and 10 (μM). After reaction for 72 hours, the plate treated with the compound was left at room temperature for 30 minutes, then further treated with 100 μl of reagent, and shaken at room temperature for 10 minutes. Finally, the ratio of fluorescence values at 570 nm was obtained using the equipment to quantitatively measure and confirmed the inhibitory ability of the compounds. The measurement values measured at eight compound concentrations were analyzed using the Prism program (version 5.01, Graphpad Software, Inc.), and the IC50 value, which is an indicator of the inhibitory ability of the compound, was calculated.

The subject of test [3] is Ba/F3 EGFR del19/T790M/C797S. Description: CellTiter-Glo cell viability, Ba/F3 EGFR del19/T790M/C797S. It counts as cell-based. The following applies: 72 hours. How it is done:
as §3, §4, §5
A general note: ATP-based viability assays read luminescence as a measure of living cells.

The test system of test [4] is Ba/F3 EGFR V769_D770insASV. Description: CellTiter-Glo cell growth, Ba/F3 EGFR Ex20 insertion mutant. The following applies: 72 hours. It counts as cell-based. The protocol:
as §3, with “the” for “the mutant”, “EGFR V769_D770insASV mutant” for “EGFR”, “EGFR V769_D770insASV” for “EGFR del19, Ba/F3 EGFR del19/T790M, Ba/F3 del19/T790M/C797S”, “1 μg/ml” for “1 μg”
Analysis of the inhibitory ability effect of the compounds against the EGFR mutant cell growth was conducted according to the following analysis reaction recipe.
as §5, with “1000 cells/100 μL were” for “2500 cells/90 μL were”, “[…]. After reaction” for “and 10 (μM). After reaction”, “with 100 μL of reagent,” for “with 100 μl of reagent,”, “confirmed the cell growth inhibitory ability” for “confirmed the inhibitory ability”, “of the cell growth inhibitory ability” for “of the inhibitory ability”

Test [5] deals with HER2 A775_G776insYVMA (Homo sapiens (Human), UniProt P04626, INS775YVMA). In words: HTRF enzyme assay, HER2 mutant enzyme. It counts as biochemical. The following applies: recombinant enzyme, 37° C. 2 hours. The protocol:
An experiment to measure the activity of the compounds of the present invention against HER mutant enzymes was performed as follows using the HTRF system sold by Cisbio. For the HER2 mutant enzyme, HER2 A775_G776insYVMA mutant enzyme, a recombinant protein provided by Carna Biosciences was purchased and used.
as §1, with “performed using with ATP at” for “performed using ATP at”, “substrate labeled biotin at” for “substrate labeled with biotin at”, “against the HER2 A775_G776insYVMA mutant activity was” for “against the EGFR activity was”, “μL of a HER2 A775_G776insYVMA mutant enzyme” for “μL of an EGFR mutant enzyme”
as §2

Chain of HER2 A775_G776insYVMA (P04626 other isoform, or with tags, fused parts or gaps del 1-675/ins YVMA behind 775 limits assumed): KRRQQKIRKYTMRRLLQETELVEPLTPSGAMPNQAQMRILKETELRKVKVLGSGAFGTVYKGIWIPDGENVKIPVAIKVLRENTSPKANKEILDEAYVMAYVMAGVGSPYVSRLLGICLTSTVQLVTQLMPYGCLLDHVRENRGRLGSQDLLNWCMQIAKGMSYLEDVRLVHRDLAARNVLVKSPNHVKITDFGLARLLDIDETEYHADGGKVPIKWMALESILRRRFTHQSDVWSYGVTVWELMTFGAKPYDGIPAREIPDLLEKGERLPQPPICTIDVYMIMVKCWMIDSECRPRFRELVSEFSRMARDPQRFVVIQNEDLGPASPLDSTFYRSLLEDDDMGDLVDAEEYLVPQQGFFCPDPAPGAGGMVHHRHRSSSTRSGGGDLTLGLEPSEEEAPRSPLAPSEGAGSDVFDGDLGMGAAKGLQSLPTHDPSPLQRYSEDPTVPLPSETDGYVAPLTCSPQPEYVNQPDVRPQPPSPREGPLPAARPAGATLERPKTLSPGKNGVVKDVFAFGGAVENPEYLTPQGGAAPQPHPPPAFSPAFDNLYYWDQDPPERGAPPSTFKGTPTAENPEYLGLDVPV
Chain of EGFR del19/T790M (P00533 other isoform, or with tags, fused parts or gaps T790M/del 1-668/del 746-750 limits assumed): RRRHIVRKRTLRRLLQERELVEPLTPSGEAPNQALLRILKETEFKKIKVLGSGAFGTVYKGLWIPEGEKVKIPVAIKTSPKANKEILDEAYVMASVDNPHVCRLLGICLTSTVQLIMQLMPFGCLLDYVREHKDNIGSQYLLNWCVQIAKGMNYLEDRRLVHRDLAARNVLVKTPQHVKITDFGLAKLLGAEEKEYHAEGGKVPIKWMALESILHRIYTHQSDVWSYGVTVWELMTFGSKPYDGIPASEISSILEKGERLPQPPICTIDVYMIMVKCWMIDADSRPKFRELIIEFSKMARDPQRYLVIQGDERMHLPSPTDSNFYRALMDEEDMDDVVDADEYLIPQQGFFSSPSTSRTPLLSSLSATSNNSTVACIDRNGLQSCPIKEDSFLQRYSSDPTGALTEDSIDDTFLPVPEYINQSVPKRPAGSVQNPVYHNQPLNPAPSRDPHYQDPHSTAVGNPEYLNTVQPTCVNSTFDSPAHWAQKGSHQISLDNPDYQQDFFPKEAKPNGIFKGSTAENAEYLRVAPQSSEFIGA

On to `COc1cc(N2CCC(N3CCN(C)CC3)CC2)ccc1Nc1ncc(Cl)c(Nc2cccc3c2N(S(C)(=O)=O)CC3)n1` [Example 2, 5-chloro-N2-(2-methoxy-4-(4-(4-methylpiperazin-1-yl)piperidin-1-yl)phenyl)-N4-(1-(methylsulfonyl)indolin-7-yl)pyrimidine-2,4-diamine], for which the IC50 (as a rule, the concentration needed to halve the response being measured) in test [1] was less than 1 nM; in test [2] it was less than 100 nM; in test [3], less than 100 nM; in test [4], 210 nM; in test [5], 1 nM.

For the molecule `COc1cc(N2CCC(N3CCN(C)CC3)CC2)ccc1Nc1ncc(Cl)c(Nc2cccc3c2N(S(C)(=O)=O)CCC3)n1` [Example 5, 5-chloro-N2-(2-methoxy-4-(4-(4-methylpiperazin-1-yl)piperidin-1-yl)phenyl)-N4-(1-(methylsulfonyl)-1,2,3,4-tetrahydroquinolin-8-yl)pyrimidine-2,4-diamine], the concentration for half-maximal inhibition (IC50) in test [1] was less than 1 nM; in test [2], less than 30 nM; in test [3], less than 30 nM; in test [4], 360 nM; in test [5] it was 3 nM.
